Experimental data taken from patent EP1509285B1, “SYNERGISTIC COMPOSITION OF TRANS-TETRACOS-15-ENOIC ACID AND APOCYNIN AND USE THEREOF” (COUNCIL OF SCIENTIFIC AND INDUSTRIAL RESEARCH, priority 2002, dated 2003).

Tested on: bile flow and bile solids
Experiment: Choleretic activity: bile flow and bile solids after bile duct cannulation in normal anaesthetised rats
Type: in vivo
Settings: 50 mg kg-1 i.d., bile collected 0-5 hours, mean ±SE
Source text: The liver, by producing bile, plays an important role in digestion. The presence of bile in the intestine is necessary to accomplish the digestion and absorption of fats as well as absorption of the fat-soluble vitamins- A, D, E & K. Bile is also an important vehicle of excretion. It removes many drugs, toxins, bile pigments and various inorganic substances either derived from the diet or synthesized by the body as cholesterol or as cholic acid.
Effect on the liver bile flow of test drug and that of vehicle is carried out after cannulating the bile duct in normal anaesthesied rats. Bile collected is from each animal from 0-5 hours (Klaassen, 1969, Donal et al.1953). (Table 5)

Which results are given for `C[C@H](CCC(=O)O)[C@H]1CC[C@H]2[C@@H]3C(=O)C[C@@H]4CC(=O)CC[C@]4(C)[C@H]3CC(=O)[C@]12C` [DHC, Dehydrocholic acid, reference compound]?
Bile parameters % Increase (as compared to normal) Bile flow: 38.40±2.76 ml%; Bile parameters % Increase (as compared to normal) Bile solids: 28.13±3.89 mg%
